{"source": "PubChem BioAssay AID2060912", "about": "(Molecular Pharmacology Branch, DTP, NCI, 2025)", "system": "HUVEC/MSC spheroids viability", "experiment": "Human HUVEC/MSC cell line growth inhibition [KRAS2];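 on viability, T/C: percent of DMSO vehicle control luminescence so 100% = untreated viability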", "conditions": "for IC50: curve of first compound; for viability, T/C: stronger effect = lower value", "how_it_was_run": "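The concentration series started at or near clinical Cmax (10 microM if not known) and fell in half-log increments, alone or in combination. Cells were stromal-only spheroids of pooled-donor HUVEC and hMSC (passage </=5), with different drug plates and layout from the tumor spheroid screens.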", "key": {"[1]": {"conditions": "second compound 0.0316 µM, first compound 0.0316 µM"}, "[2]": {"conditions": "second compound 0.0316 µM, first compound 0.1 µM"}, "[3]": {"conditions": "second compound 0.1 µM, first compound 0.0316 µM"}, "[4]": {"conditions": "second compound 0.1 µM, first compound 0.1 µM"}, "[5]": {"conditions": "second compound 0.316 µM, first compound 0.0316 µM"}, "[6]": {"conditions": "second compound 0.316 µM, first compound 0.1 µM"}, "[7]": {"conditions": "second compound 1 µM, first compound 0.0316 µM"}, "[8]": {"conditions": "second compound 1 µM, first compound 0.1 µM"}, "[9]": {"conditions": "second compound 3.16 µM, first compound 0.0316 µM"}, "[10]": {"conditions": "second compound 3.16 µM, first compound 0.1 µM"}, "[11]": {"conditions": "second compound 10 µM, first compound 0.0316 µM"}, "[12]": {"conditions": "second compound 10 µM, first compound 0.1 µM"}}}
{"smiles": "CC(C)NCC(C(=O)N1CCN(c2ncnc3c2C(C)CC3O)CC1)c1ccc(Cl)cc1", "note": "(centres undefined) + CC1OCC2(CCN(c3cnc(Sc4ccnc(N)c4Cl)c(N)n3)CC2)C1N", "values": [{"measurement": "IC50", "setting": "second compound 0.0316 µM", "result": 7880, "unit": "nM"}, {"measurement": "IC50", "setting": "second compound 0.1 µM", "result": 6150, "unit": "nM"}, {"measurement": "IC50", "setting": "second compound 0.316 µM", "result": 2550, "unit": "nM"}, {"measurement": "IC50", "setting": "second compound 1 µM", "result": 1310, "unit": "nM"}, {"measurement": "IC50", "setting": "second compound 3.16 µM", "result": 564, "unit": "nM"}, {"measurement": "IC50", "setting": "second compound 10 µM", "result": 228, "unit": "nM"}, {"measurement": "viability, T/C", "setting": "[1]", "result": 115, "unit": "%"}, {"measurement": "viability, T/C", "setting": "[2]", "result": 109, "unit": "%"}, {"measurement": "viability, T/C", "setting": "second compound 0.0316 µM, first compound 0.316 µM", "result": 93.5, "unit": "%"}, {"measurement": "viability, T/C", "setting": "second compound 0.0316 µM, first compound 1 µM", "result": 66.2, "unit": "%"}, {"measurement": "viability, T/C", "setting": "second compound 0.0316 µM, first compound 3.16 µM", "result": 56.2, "unit": "%"}, {"measurement": "viability, T/C", "setting": "second compound 0.0316 µM, first compound 10 µM", "result": 47.6, "unit": "%"}, {"measurement": "viability, T/C", "setting": "[3]", "result": 123, "unit": "%"}, {"measurement": "viability, T/C", "setting": "[4]", "result": 107, "unit": "%"}, {"measurement": "viability, T/C", "setting": "second compound 0.1 µM, first compound 0.316 µM", "result": 90.9, "unit": "%"}, {"measurement": "viability, T/C", "setting": "second compound 0.1 µM, first compound 1 µM", "result": 59.6, "unit": "%"}, {"measurement": "viability, T/C", "setting": "second compound 0.1 µM, first compound 3.16 µM", "result": 57.3, "unit": "%"}, {"measurement": "viability, T/C", "setting": "second compound 0.1 µM, first compound 10 µM", "result": 46.1, "unit": "%"}, {"measurement": "viability, T/C", "setting": "[5]", "result": 94.1, "unit": "%"}, {"measurement": "viability, T/C", "setting": "[6]", "result": 107, "unit": "%"}, {"measurement": "viability, T/C", "setting": "second compound 0.316 µM, first compound 0.316 µM", "result": 98.1, "unit": "%"}, {"measurement": "viability, T/C", "setting": "second compound 0.316 µM, first compound 1 µM", "result": 68.1, "unit": "%"}, {"measurement": "viability, T/C", "setting": "second compound 0.316 µM, first compound 3.16 µM", "result": 49.5, "unit": "%"}, {"measurement": "viability, T/C", "setting": "second compound 0.316 µM, first compound 10 µM", "result": 38, "unit": "%"}, {"measurement": "viability, T/C", "setting": "[7]", "result": 89.6, "unit": "%"}, {"measurement": "viability, T/C", "setting": "[8]", "result": 91, "unit": "%"}, {"measurement": "viability, T/C", "setting": "second compound 1 µM, first compound 0.316 µM", "result": 69.8, "unit": "%"}, {"measurement": "viability, T/C", "setting": "second compound 1 µM, first compound 1 µM", "result": 56.4, "unit": "%"}, {"measurement": "viability, T/C", "setting": "second compound 1 µM, first compound 3.16 µM", "result": 36.4, "unit": "%"}, {"measurement": "viability, T/C", "setting": "second compound 1 µM, first compound 10 µM", "result": 31.6, "unit": "%"}, {"measurement": "viability, T/C", "setting": "[9]", "result": 80.3, "unit": "%"}, {"measurement": "viability, T/C", "setting": "[10]", "result": 74.4, "unit": "%"}, {"measurement": "viability, T/C", "setting": "second compound 3.16 µM, first compound 0.316 µM", "result": 58.3, "unit": "%"}, {"measurement": "viability, T/C", "setting": "second compound 3.16 µM, first compound 1 µM", "result": 43.1, "unit": "%"}, {"measurement": "viability, T/C", "setting": "second compound 3.16 µM, first compound 3.16 µM", "result": 22.1, "unit": "%"}, {"measurement": "viability, T/C", "setting": "second compound 3.16 µM, first compound 10 µM", "result": 21, "unit": "%"}, {"measurement": "viability, T/C", "setting": "[11]", "result": 65.1, "unit": "%"}, {"measurement": "viability, T/C", "setting": "[12]", "result": 62.4, "unit": "%"}, {"measurement": "viability, T/C", "setting": "second compound 10 µM, first compound 0.316 µM", "result": 43.4, "unit": "%"}, {"measurement": "viability, T/C", "setting": "second compound 10 µM, first compound 1 µM", "result": 30.8, "unit": "%"}, {"measurement": "viability, T/C", "setting": "second compound 10 µM, first compound 3.16 µM", "result": 14.3, "unit": "%"}, {"measurement": "viability, T/C", "setting": "second compound 10 µM, first compound 10 µM", "result": 5.59, "unit": "%"}]}
{"smiles": "CC(C)n1nc(-c2ccc3oc(N)nc3c2)c2c(N)ncnc21", "note": "+ CC1OCC2(CCN(c3cnc(Sc4ccnc(N)c4Cl)c(N)n3)CC2)C1N", "values": [{"measurement": "IC50", "setting": "second compound 0.0316 µM", "result": 14.8, "unit": "nM"}, {"measurement": "IC50", "setting": "second compound 0.1 µM", "result": 8.3, "unit": "nM"}, {"measurement": "IC50", "setting": "second compound 0.316 µM", "result": 3.12, "unit": "nM"}, {"measurement": "IC50", "setting": "second compound 1 µM", "result": 2.42, "unit": "nM"}, {"measurement": "IC50", "setting": "second compound 3.16 µM", "result": 1.61, "unit": "nM"}, {"measurement": "IC50", "setting": "second compound 10 µM", "result": "< 0.316", "unit": "nM"}, {"measurement": "viability, T/C", "setting": "second compound 0.0316 µM, first compound 0.000316 µM", "result": 108, "unit": "%"}, {"measurement": "viability, T/C", "setting": "second compound 0.0316 µM, first compound 0.001 µM", "result": 95.2, "unit": "%"}, {"measurement": "viability, T/C", "setting": "second compound 0.0316 µM, first compound 0.00316 µM", "result": 63.9, "unit": "%"}, {"measurement": "viability, T/C", "setting": "second compound 0.0316 µM, first compound 0.01 µM", "result": 53.5, "unit": "%"}, {"measurement": "viability, T/C", "setting": "[1]", "result": 50.4, "unit": "%"}, {"measurement": "viability, T/C", "setting": "[2]", "result": 43.9, "unit": "%"}, {"measurement": "viability, T/C", "setting": "second compound 0.1 µM, first compound 0.000316 µM", "result": 100, "unit": "%"}, {"measurement": "viability, T/C", "setting": "second compound 0.1 µM, first compound 0.001 µM", "result": 93.8, "unit": "%"}, {"measurement": "viability, T/C", "setting": "second compound 0.1 µM, first compound 0.00316 µM", "result": 63.3, "unit": "%"}, {"measurement": "viability, T/C", "setting": "second compound 0.1 µM, first compound 0.01 µM", "result": 49.6, "unit": "%"}, {"measurement": "viability, T/C", "setting": "[3]", "result": 43.6, "unit": "%"}, {"measurement": "viability, T/C", "setting": "[4]", "result": 36.4, "unit": "%"}, {"measurement": "viability, T/C", "setting": "second compound 0.316 µM, first compound 0.000316 µM", "result": 85, "unit": "%"}, {"measurement": "viability, T/C", "setting": "second compound 0.316 µM, first compound 0.001 µM", "result": 81.3, "unit": "%"}, {"measurement": "viability, T/C", "setting": "second compound 0.316 µM, first compound 0.00316 µM", "result": 49.2, "unit": "%"}, {"measurement": "viability, T/C", "setting": "second compound 0.316 µM, first compound 0.01 µM", "result": 47.5, "unit": "%"}, {"measurement": "viability, T/C", "setting": "[5]", "result": 42.6, "unit": "%"}, {"measurement": "viability, T/C", "setting": "[6]", "result": 35.6, "unit": "%"}, {"measurement": "viability, T/C", "setting": "second compound 1 µM, first compound 0.000316 µM", "result": 83.8, "unit": "%"}, {"measurement": "viability, T/C", "setting": "second compound 1 µM, first compound 0.001 µM", "result": 71.2, "unit": "%"}, {"measurement": "viability, T/C", "setting": "second compound 1 µM, first compound 0.00316 µM", "result": 43.4, "unit": "%"}, {"measurement": "viability, T/C", "setting": "second compound 1 µM, first compound 0.01 µM", "result": 33.1, "unit": "%"}, {"measurement": "viability, T/C", "setting": "[7]", "result": 33.3, "unit": "%"}, {"measurement": "viability, T/C", "setting": "[8]", "result": 28.9, "unit": "%"}, {"measurement": "viability, T/C", "setting": "second compound 3.16 µM, first compound 0.000316 µM", "result": 62.6, "unit": "%"}, {"measurement": "viability, T/C", "setting": "second compound 3.16 µM, first compound 0.001 µM", "result": 60, "unit": "%"}, {"measurement": "viability, T/C", "setting": "second compound 3.16 µM, first compound 0.00316 µM", "result": 36.5, "unit": "%"}, {"measurement": "viability, T/C", "setting": "second compound 3.16 µM, first compound 0.01 µM", "result": 27.7, "unit": "%"}, {"measurement": "viability, T/C", "setting": "[9]", "result": 22, "unit": "%"}, {"measurement": "viability, T/C", "setting": "[10]", "result": 23.1, "unit": "%"}, {"measurement": "viability, T/C", "setting": "second compound 10 µM, first compound 0.000316 µM", "result": 48.2, "unit": "%"}, {"measurement": "viability, T/C", "setting": "second compound 10 µM, first compound 0.001 µM", "result": 41.8, "unit": "%"}, {"measurement": "viability, T/C", "setting": "second compound 10 µM, first compound 0.00316 µM", "result": 22.3, "unit": "%"}, {"measurement": "viability, T/C", "setting": "second compound 10 µM, first compound 0.01 µM", "result": 16.2, "unit": "%"}, {"measurement": "viability, T/C", "setting": "[11]", "result": 16.8, "unit": "%"}, {"measurement": "viability, T/C", "setting": "[12]", "result": 10.7, "unit": "%"}]}
